According to publication PMC12524621 (2025):

Tests used:
Assay in all cases: fluorescence light-up (580/640 nm)
[1] = test system: CV30S_8 long-armed binary sensor + analyte (DNA, aptamer) TTACCCCACCAACTAGCTAATCCCACTTTAACGACCACCGGTGCGCCGTATTTTTT/AAAAAACAGGTAACTAGCGTCGTCGTTTTTCTGGGCATATCCAATCGCGCAA/TCGGGCCTTGCGCGATTGGATATGCCCAGGTGGGATTAGCTAGTTGGTGGGGTAATGG; settings: 62.5 mM K+, 50 mM Na+, Mg2+ (concentration not stated); 25 mM Tris-HCl pH 7, incubated at 55 °C; analyte 1 µM; S/B 2.1
[2] = test system: CleavedCV30S_8 (m + f) (DNA, aptamer) AACGACCACCGGTGCGCCGTATTTTTT/AAAAAACAGGTAACTAGCGTCGTCGTT; settings: 62.5 mM K+, 50 mM Na+, Mg2+ (concentration not stated); 25 mM Tris-HCl pH 7; second best cleavage site
[3] = test system: G4 parallel short-armed binary sensor + analyte (DNA, G4) AACTAGCTAATCCCACTTTTTTGGGTAGGG/GGGTTGGGTTTTTTCTGGGCATATCCAA/TCGGGCCTTGCGCGATTGGATATGCCCAGGTGGGATTAGCTAGTTGGTGGGGTAATGG; settings: 62.5 mM K+, 50 mM Na+, Mg2+ (concentration not stated); 25 mM Tris-HCl pH 7, incubated at 37 °C; analyte 1 µM; S/B 3
[4] = test system: G4 antiparallel long-armed binary sensor + analyte (DNA, G4) TTACCCCACCAACTAGCTAATCCCACTTTTTTAGGGTTAGG/GTTAGGGTTAGGGTTTTTTCTGGGCATATCCAATCGCGCAA/TCGGGCCTTGCGCGATTGGATATGCCCAGGTGGGATTAGCTAGTTGGTGGGGTAATGG; settings: 37.5 mM K+, 50 mM Na+, Mg2+ (concentration not stated); 25 mM Tris-HCl pH 7, incubated at 55 °C; analyte 1 µM; S/B 3.3
[5] = test system: CV30S (Aptamer_CV30S) (DNA, aptamer) AACGACCACCGGTGCGCCGTACAGGTAACTAGCGTCGTCGTT; settings: 62.5 mM K+, 50 mM Na+, Mg2+ (concentration not stated); 25 mM Tris-HCl pH 7, ~22 °C, 1.7 µM each; S/B 7.8
[6] = test system: G4 parallel (Aptamer_G4_parallel) (DNA, G4) GGGTAGGGCGGGTTGGG; settings: 62.5 mM K+, 50 mM Na+, Mg2+ (concentration not stated); 25 mM Tris-HCl pH 7, ~22 °C, 1.7 µM each; S/B 1.9, poorest of three
[7] = test system: CV30S_8 short-armed binary sensor + analyte (DNA, aptamer) AACTAGCTAATCCCACTTTAACGACCACCGGTGCGCCGTATTTTTT/AAAAAACAGGTAACTAGCGTCGTCGTTTTTCTGGGCATATCCAA/TCGGGCCTTGCGCGATTGGATATGCCCAGGTGGGATTAGCTAGTTGGTGGGGTAATGG; settings: 62.5 mM K+, 50 mM Na+, Mg2+ (concentration not stated); 25 mM Tris-HCl pH 7, incubated at 37 °C; analyte 1 µM; S/B 2.2
[8] = test system: G4 parallel long-armed binary sensor + analyte (DNA, G4) TTACCCCACCAACTAGCTAATCCCACTTTTTTGGGTAGGG/GGGTTGGGTTTTTTCTGGGCATATCCAATCGCGCAA/TCGGGCCTTGCGCGATTGGATATGCCCAGGTGGGATTAGCTAGTTGGTGGGGTAATGG; settings: 62.5 mM K+, 50 mM Na+, Mg2+ (concentration not stated); 25 mM Tris-HCl pH 7, incubated at 55 °C; analyte 1 µM; S/B 3.3
[9] = test system: G4 antiparallel short-armed binary sensor + analyte (DNA, G4) AACTAGCTAATCCCACTTTTTTAGGGTTAGG/GTTAGGGTTAGGGTTTTTTCTGGGCATATCCAA/TCGGGCCTTGCGCGATTGGATATGCCCAGGTGGGATTAGCTAGTTGGTGGGGTAATGG; settings: 37.5 mM K+, 50 mM Na+, Mg2+ (concentration not stated); 25 mM Tris-HCl pH 7, incubated at 37 °C; analyte 1 µM; S/B 3.2
[10] = test system: G4 antiparallel (Aptamer_G4_antiparallel) (DNA, G4) AGGGTTAGGGTTAGGGTTAGGG; settings: 37.5 mM K+, 50 mM Na+, Mg2+ (concentration not stated); 25 mM Tris-HCl pH 7, ~22 °C, 1.7 µM each; S/B 8.7
[11] = test system: CleavedCV30S_3 (m + f) (DNA, aptamer) AACGACCACCGGTGCGCCGTACAGGTTTTTTT/AAAAAAAACTAGCGTCGTCGTT; settings: 62.5 mM K+, 50 mM Na+, Mg2+ (concentration not stated); 25 mM Tris-HCl pH 7; third best cleavage site
[12] = test system: CleavedCV30S_2 (m + f) (DNA, aptamer) AACGACCACCGGTGCGCCGTTTTTTT/AAAAAAACAGGTAACTAGCGTCGTCGTT; settings: 62.5 mM K+, 50 mM Na+, Mg2+ (concentration not stated); 25 mM Tris-HCl pH 7; best of eight cleavage sites
[13] = test system: CleavedCV30S_1 (m + f) (DNA, aptamer) AACGACCACCGGTGTTTTTT/AAAAAACGCCGTACAGGTAACTAGCGTCGTCGTT; settings: 62.5 mM K+, 50 mM Na+, Mg2+ (concentration not stated); 25 mM Tris-HCl pH 7; fourth best cleavage site

Measured: binding

CN(C)c1ccc(C(=C2C=CC(=[N+](C)C)C=C2)c2ccc(N(C)C)cc2)cc1
yes: all assays above
